Reference: the NIST ThermoML archive (doi:10.1021/je400630f)
Where “and” joins values, the source holds several entries; their conditions need not be identical. Equal values may be shown once. Numbers after ± are expanded uncertainties.

Tests used:
[1] = xn = mol fraction of the nth substance listed; settings: 100 kPa, Liquid, x1 = 1; for viscosity: Capillary tube (Ostwald / Ubbelohde) method
[2] = 100 kPa, Liquid; for viscosity: Capillary tube (Ostwald / Ubbelohde) method

SMILES: CCO [ethanol] + CCCCCO
- viscosity ([1]; 283.15 K): 1.475 ± 0.031 mPa·s
- mass density ([1]; 283.15 K): 798 ± 1.3 kg/m3
- viscosity ([1]; 293.15 K): 1.196 ± 0.025 mPa·s
- mass density ([1]; 293.15 K): 789.5 ± 1.4 kg/m3
- viscosity ([1]; 298.15 K): 1.102 ± 0.023 mPa·s
- mass density ([1]; 298.15 K): 785.2 ± 1.4 kg/m3
- viscosity ([1]; 303.15 K): 0.996 ± 0.021 mPa·s
- mass density ([1]; 303.15 K): 781.1 ± 1.4 kg/m3
- viscosity ([1]; 313.15 K): 0.842 ± 0.018 mPa·s
- mass density ([1]; 313.15 K): 772.3 ± 1.4 kg/m3

SMILES: CCCCCCCCCO [nonan-1-ol]
- mass density ([2]; 283.15 K): 835 ± 1.3 kg/m3
- viscosity ([2]; 283.15 K): 17.44 ± 0.36 mPa·s
- mass density ([2]; 293.15 K): 828.1 ± 1.3 kg/m3
- viscosity ([2]; 293.15 K): 11.63 ± 0.24 mPa·s
- mass density ([2]; 298.15 K): 824.7 ± 1.3 kg/m3
- viscosity ([2]; 298.15 K): 9.519 ± 0.2 mPa·s
- mass density ([2]; 303.15 K): 821.3 ± 1.3 kg/m3
- viscosity ([2]; 303.15 K): 7.806 ± 0.16 mPa·s
- mass density ([2]; 313.15 K): 814.3 ± 1.4 kg/m3
- viscosity ([2]; 313.15 K): 5.668 ± 0.12 mPa·s

SMILES: CCO [ethanol] + CCCCO
- viscosity ([1]; 283.15 K): 1.475 ± 0.031 mPa·s
- mass density ([1]; 283.15 K): 798 ± 1.3 kg/m3
- viscosity ([1]; 293.15 K): 1.196 ± 0.025 mPa·s
- mass density ([1]; 293.15 K): 789.5 ± 1.4 kg/m3
- viscosity ([1]; 298.15 K): 1.102 ± 0.023 mPa·s
- mass density ([1]; 298.15 K): 785.2 ± 1.4 kg/m3
- viscosity ([1]; 303.15 K): 0.996 ± 0.021 mPa·s
- mass density ([1]; 303.15 K): 781.1 ± 1.4 kg/m3
- viscosity ([1]; 313.15 K): 0.842 ± 0.018 mPa·s
- mass density ([1]; 313.15 K): 772.3 ± 1.4 kg/m3

SMILES: CCO [ethanol] + CCCCCCCO
- viscosity ([1]; 283.15 K): 1.475 ± 0.031 mPa·s
- mass density ([1]; 283.15 K): 798 ± 1.3 kg/m3
- viscosity ([1]; 293.15 K): 1.196 ± 0.025 mPa·s
- mass density ([1]; 293.15 K): 789.5 ± 1.4 kg/m3
- viscosity ([1]; 298.15 K): 1.102 ± 0.023 mPa·s
- mass density ([1]; 298.15 K): 785.2 ± 1.4 kg/m3
- viscosity ([1]; 303.15 K): 0.996 ± 0.021 mPa·s
- mass density ([1]; 303.15 K): 781.1 ± 1.4 kg/m3
- viscosity ([1]; 313.15 K): 0.842 ± 0.018 mPa·s
- mass density ([1]; 313.15 K): 772.3 ± 1.4 kg/m3

SMILES: CCCCCO [pentan-1-ol]
- mass density ([2]; 283.15 K): 822.1 ± 1.3 kg/m3
- viscosity ([2]; 283.15 K): 5.417 ± 0.11 mPa·s
- mass density ([2]; 293.15 K): 814.7 ± 1.3 kg/m3
- viscosity ([2]; 293.15 K): 3.974 ± 0.083 mPa·s
- mass density ([2]; 298.15 K): 811.2 ± 1.3 kg/m3
- viscosity ([2]; 298.15 K): 3.441 ± 0.072 mPa·s
- mass density ([2]; 303.15 K): 807.5 ± 1.3 kg/m3
- viscosity ([2]; 303.15 K): 2.99 ± 0.062 mPa·s
- mass density ([2]; 313.15 K): 800 ± 1.4 kg/m3
- viscosity ([2]; 313.15 K): 2.263 ± 0.047 mPa·s

SMILES: CCCCO [butan-1-ol]
- mass density ([2]; 283.15 K): 817.3 ± 1.2 kg/m3
- viscosity ([2]; 283.15 K): 3.822 ± 0.079 mPa·s
- mass density ([2]; 293.15 K): 809.6 ± 1.3 kg/m3
- viscosity ([2]; 293.15 K): 2.859 ± 0.059 mPa·s
- mass density ([2]; 298.15 K): 805.8 ± 1.3 kg/m3
- viscosity ([2]; 298.15 K): 2.558 ± 0.053 mPa·s
- mass density ([2]; 303.15 K): 802.1 ± 1.3 kg/m3
- viscosity ([2]; 303.15 K): 2.236 ± 0.046 mPa·s
- mass density ([2]; 313.15 K): 794.3 ± 1.3 kg/m3
- viscosity ([2]; 313.15 K): 1.736 ± 0.036 mPa·s

SMILES: CCO [ethanol] + CCCCCCCCCCO
- viscosity ([1]; 283.15 K): 1.475 ± 0.031 mPa·s
- mass density ([1]; 283.15 K): 798 ± 1.3 kg/m3
- viscosity ([1]; 293.15 K): 1.196 ± 0.025 mPa·s
- mass density ([1]; 293.15 K): 789.5 ± 1.4 kg/m3
- viscosity ([1]; 298.15 K): 1.102 ± 0.023 mPa·s
- mass density ([1]; 298.15 K): 785.2 ± 1.4 kg/m3
- viscosity ([1]; 303.15 K): 0.996 ± 0.021 mPa·s
- mass density ([1]; 303.15 K): 781.1 ± 1.4 kg/m3
- viscosity ([1]; 313.15 K): 0.842 ± 0.018 mPa·s
- mass density ([1]; 313.15 K): 772.3 ± 1.4 kg/m3

SMILES: CCO [ethanol] + CCCCCCCCCO
- viscosity ([1]; 283.15 K): 1.475 ± 0.031 mPa·s
- mass density ([1]; 283.15 K): 798 ± 1.3 kg/m3
- viscosity ([1]; 293.15 K): 1.196 ± 0.025 mPa·s
- mass density ([1]; 293.15 K): 789.5 ± 1.4 kg/m3
- viscosity ([1]; 298.15 K): 1.102 ± 0.023 mPa·s
- mass density ([1]; 298.15 K): 785.2 ± 1.4 kg/m3
- viscosity ([1]; 303.15 K): 0.996 ± 0.021 mPa·s
- mass density ([1]; 303.15 K): 781.1 ± 1.4 kg/m3
- viscosity ([1]; 313.15 K): 0.842 ± 0.018 mPa·s
- mass density ([1]; 313.15 K): 772.3 ± 1.4 kg/m3

SMILES: CCCCCCCCCCO [decan-1-ol]
- mass density ([2]; 283.15 K): 836.6 ± 1.2 kg/m3
- viscosity ([2]; 283.15 K): 22.06 ± 0.45 mPa·s
- mass density ([2]; 293.15 K): 829.9 ± 1.2 kg/m3
- viscosity ([2]; 293.15 K): 14.5 ± 0.3 mPa·s
- mass density ([2]; 298.15 K): 826.5 ± 1.2 kg/m3
- viscosity ([2]; 298.15 K): 11.47 ± 0.24 mPa·s
- mass density ([2]; 303.15 K): 823 ± 1.2 kg/m3
- viscosity ([2]; 303.15 K): 9.61 ± 0.2 mPa·s
- mass density ([2]; 313.15 K): 816.2 ± 1.3 kg/m3
- viscosity ([2]; 313.15 K): 6.9 ± 0.14 mPa·s

SMILES: CCCCCCCO [heptan-1-ol]
- mass density ([2]; 283.15 K): 829.6 ± 1.3 kg/m3
- viscosity ([2]; 283.15 K): 10.15 ± 0.21 mPa·s
- mass density ([2]; 293.15 K): 822.6 ± 1.3 kg/m3
- viscosity ([2]; 293.15 K): 7.026 ± 0.15 mPa·s
- mass density ([2]; 298.15 K): 819.1 ± 1.3 kg/m3
- viscosity ([2]; 298.15 K): 5.947 ± 0.12 mPa·s
- mass density ([2]; 303.15 K): 815.6 ± 1.3 kg/m3
- viscosity ([2]; 303.15 K): 5.041 ± 0.11 mPa·s
- mass density ([2]; 313.15 K): 808.4 ± 1.4 kg/m3
- viscosity ([2]; 313.15 K): 3.802 ± 0.08 mPa·s

SMILES: CCO [ethanol]
- mass density ([2]; 283.15 K): 798 ± 1.3 kg/m3
- viscosity ([2]; 283.15 K): 1.475 ± 0.031 mPa·s
- mass density ([2]; 293.15 K): 789.5 ± 1.4 kg/m3
- viscosity ([2]; 293.15 K): 1.196 ± 0.025 mPa·s
- mass density ([2]; 298.15 K): 785.2 ± 1.4 kg/m3
- viscosity ([2]; 298.15 K): 1.102 ± 0.023 mPa·s
- mass density ([2]; 303.15 K): 781.1 ± 1.4 kg/m3
- viscosity ([2]; 303.15 K): 0.996 ± 0.021 mPa·s and 0.994 ± 0.021 mPa·s
- mass density ([2]; 313.15 K): 772.3 ± 1.4 kg/m3
- viscosity ([2]; 313.15 K): 0.842 ± 0.018 mPa·s

SMILES: CCO [ethanol] + CCCCCCCCO
- viscosity ([1]; 283.15 K): 1.475 ± 0.031 mPa·s
- mass density ([1]; 283.15 K): 798 ± 1.3 kg/m3
- viscosity ([1]; 293.15 K): 1.196 ± 0.025 mPa·s
- mass density ([1]; 293.15 K): 789.5 ± 1.4 kg/m3
- viscosity ([1]; 298.15 K): 1.102 ± 0.023 mPa·s
- mass density ([1]; 298.15 K): 785.2 ± 1.4 kg/m3
- viscosity ([1]; 303.15 K): 0.994 ± 0.021 mPa·s
- mass density ([1]; 303.15 K): 781.1 ± 1.4 kg/m3
- viscosity ([1]; 313.15 K): 0.842 ± 0.018 mPa·s
- mass density ([1]; 313.15 K): 772.3 ± 1.4 kg/m3

SMILES: CCCCCCCCO [octan-1-ol]
- mass density ([2]; 283.15 K): 832.1 ± 1.2 kg/m3
- viscosity ([2]; 283.15 K): 13.49 ± 0.28 mPa·s
- mass density ([2]; 293.15 K): 825.2 ± 1.2 kg/m3
- viscosity ([2]; 293.15 K): 9.016 ± 0.19 mPa·s
- mass density ([2]; 298.15 K): 821.9 ± 1.2 kg/m3
- viscosity ([2]; 298.15 K): 7.39 ± 0.15 mPa·s
- mass density ([2]; 303.15 K): 818.4 ± 1.3 kg/m3
- viscosity ([2]; 303.15 K): 6.306 ± 0.13 mPa·s
- mass density ([2]; 313.15 K): 811.4 ± 1.3 kg/m3
- viscosity ([2]; 313.15 K): 4.587 ± 0.095 mPa·s
